Like-named read-outs stand apart in the source and are kept apart here. One block for each molecule: values may come before it. Where a SMILES comes first, the peptide text is derived from it. The star is where a group is joined. AFC = O=c1cc(C(F)(F)F)c2ccc(N*)cc2o1
How the values were obtained:
[1] = biological target: T1, Seprase (Homo sapiens, UniProt Q12884); test: Seprase activity towards fluorogenic substrates; assay type: biochemical; settings: compared with substrate Z-Gly-Pro-AMC
T1 sequence (Q12884 1-760): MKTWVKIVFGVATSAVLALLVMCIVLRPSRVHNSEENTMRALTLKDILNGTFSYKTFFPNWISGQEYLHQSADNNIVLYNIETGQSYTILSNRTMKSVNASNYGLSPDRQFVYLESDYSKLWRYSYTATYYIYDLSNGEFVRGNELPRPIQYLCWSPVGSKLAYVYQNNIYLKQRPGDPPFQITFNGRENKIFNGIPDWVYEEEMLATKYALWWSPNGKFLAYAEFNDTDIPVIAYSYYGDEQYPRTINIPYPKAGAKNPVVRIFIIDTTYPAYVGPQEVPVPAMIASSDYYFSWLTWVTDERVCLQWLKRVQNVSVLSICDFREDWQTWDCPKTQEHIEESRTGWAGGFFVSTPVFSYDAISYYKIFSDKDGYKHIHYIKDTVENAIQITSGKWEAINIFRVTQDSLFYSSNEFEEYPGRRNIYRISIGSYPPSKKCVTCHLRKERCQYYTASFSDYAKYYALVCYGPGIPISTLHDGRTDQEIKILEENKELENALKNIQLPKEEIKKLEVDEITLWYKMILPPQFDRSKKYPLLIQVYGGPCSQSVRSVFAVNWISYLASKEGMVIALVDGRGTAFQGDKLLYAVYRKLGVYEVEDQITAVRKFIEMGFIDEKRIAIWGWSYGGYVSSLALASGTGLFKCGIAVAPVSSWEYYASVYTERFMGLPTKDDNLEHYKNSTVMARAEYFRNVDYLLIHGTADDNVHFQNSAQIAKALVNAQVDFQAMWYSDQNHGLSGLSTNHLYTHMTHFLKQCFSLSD
From the text: The substrate used for the test is Benzyloxycarbonyl (Z)-Gly-Pro-7-amino-4-methylcoumarin (AMC) [Z-Gly-Pro-AMC]. […] This substrate is for a completely different enzyme, namely DPPII.

[2] = biological target: T2, Prolyl Oligopeptidase (Homo sapiens, UniProt P48147)
T2 sequence (P48147 1-710): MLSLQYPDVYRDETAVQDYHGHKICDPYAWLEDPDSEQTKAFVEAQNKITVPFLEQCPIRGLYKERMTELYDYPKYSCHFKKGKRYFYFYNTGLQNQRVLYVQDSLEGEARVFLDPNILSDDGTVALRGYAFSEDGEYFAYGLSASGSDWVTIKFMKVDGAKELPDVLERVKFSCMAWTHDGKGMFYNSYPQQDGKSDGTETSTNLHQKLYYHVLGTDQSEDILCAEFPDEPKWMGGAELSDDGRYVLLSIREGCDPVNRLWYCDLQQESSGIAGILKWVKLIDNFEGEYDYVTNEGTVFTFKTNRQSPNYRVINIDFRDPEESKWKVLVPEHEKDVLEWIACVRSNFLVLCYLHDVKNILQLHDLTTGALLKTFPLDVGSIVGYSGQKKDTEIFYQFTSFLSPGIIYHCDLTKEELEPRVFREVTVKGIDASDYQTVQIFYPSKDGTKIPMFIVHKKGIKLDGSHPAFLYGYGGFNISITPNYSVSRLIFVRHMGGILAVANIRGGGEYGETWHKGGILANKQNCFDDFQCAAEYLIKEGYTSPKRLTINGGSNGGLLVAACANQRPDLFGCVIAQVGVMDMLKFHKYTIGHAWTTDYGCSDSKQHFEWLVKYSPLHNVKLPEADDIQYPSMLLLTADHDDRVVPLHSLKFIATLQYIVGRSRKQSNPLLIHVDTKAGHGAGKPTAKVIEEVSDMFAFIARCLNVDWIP

[3] = biological target: T3, PO (Prolyl Oligopeptidase) (Homo sapiens, UniProt P48147); test: Fluorimetric Z-Gly-Pro-AMC assay in serum with PO inhibitor; assay type: biochemical; settings: JTP-4819 at a concentration of 4×10^−6M in the assay; 100 μM Z-Gly-Pro-AMC, 37° C.
T3 construct: from tissue; host or cells: serum
T3 sequence (P48147 1-710): T2 sequence (P48147 1-710)
Protocol: A 25 μl aliquot of serum was pre-incubated for 15 minutes at 37° C. with 5 μl of 2.5×10^−4M JTP-4819 in 10% v/v MeOH in a 96 well microtitre plate prior to substrate addition. Next, 100 μl of 100μM Z-Gly-Pro-AMC substrate in 4% MeOH was added to the sample and the microtitre plate was incubated at 37° C. for 60 mins. Reactions were terminated by the addition of 170 μl of 1.5M acetic acid. Blanks or negative controls were prepared by adding 170 μl of 1.5M acetic acid to 25 μl of enzyme sample prior to substrate addition and incubation at 37° C. for 60 mins. The assay is performed in triplicate and at three different times. […] This concentration is obtained by adding 5 μl of 2.5×10^−4 M JTP-4819 to the assay.
Fluorimetric analysis of these samples was achieved using a Perkin Elmer LS50 Fluorescence Spectrophotometer at excitation and emission wavelengths of 370 nm and 440 nm respectively. Excitation slit widths were maintained at 10 nm while emission slit widths were adjusted accordingly for the range being analysed.
End point measurements were allowed, as the enzyme assay was linear with respect to time and enzyme concentration up to 60 mins. Fluorimetric intensities observed were converted to nanomoles AMC released per minute per ml using the appropriate standard curve. Enzyme units were defined as nanomoles of AMC released per minute at 37° C.

[4] = Prolyl Oligopeptidase specific inhibitors, Table 5, Bacterial Inhibitor; cited from earlier work
[5] = Prolyl Oligopeptidase specific inhibitors, Table 5; read-out: Potency Ki; cited from earlier work
[6] = Prolyl Oligopeptidase specific inhibitors, Table 5; read-out: Potency IC50; cited from earlier work

Molecule: C[C@H](N)C(=O)N1CCC[C@H]1C(=O)Nc1ccc2c(C(F)(F)F)cc(=O)oc2c1 [Ala-Pro-7-amino-4-trifluoromethylcoumarin] (H-Ala-Pro-{AFC})
- Seprase activity towards substrate [1]: markedly less activity

Molecule: CC(C)CC/C=C/C(=O)NC1CCCNC(=O)C(CC(C)C)NC(=O)C(=O)C(C)NC1=O (stereo not drawn) [Eurystatin A]
- Potency IC50 [2, 4]: IC50 = 0.004 μg/mL

Molecule: CCC(C)CC/C=C/C(=O)NC1CCCNC(=O)C(CC(C)C)NC(=O)C(=O)C(C)NC1=O (stereo not drawn) [Eurystatin B]
- Potency IC50 [2, 4]: IC50 = 0.002 μg/mL

Molecule: CC(NC(=O)OCC1c2ccccc2-c2ccccc21)C(=O)N1CCCC1C#N (stereo not drawn) [Fmoc-Ala-Pro-CN]
- Ki [2, 5]: 5 nM

Molecule: N#CC1CCCN1C(=O)C1CCCN1C(=O)OCC1c2ccccc2-c2ccccc21 (stereo not drawn) [Fmoc-Pro-Pro-CN]
- Ki [2, 5]: 5 nM

- PO sensitivity to inhibitor [3]: sensitive
Molecule: O=C(CO)[C@@H]1CCCN1C(=O)[C@@H]1CCCN1C(=O)NCc1ccccc1 [JTP-4819]
- IC50 [2, 6]: 0.83 nM
- Ki [2, 5]: 0.045 nM

Molecule: O=C[C@@H]1CCCN1C(=O)CCC(=O)NCc1ccc(Cl)cc1 [ONO-1603]
- IC50 [2, 6]: 57 nM

Molecule: COc1cccc2c1C(=O)c1ccc3c(c1C2=O)C(=O)C[C@@H](C)[C@H]3O [SNA-8073-B]
- Ki [2, 5]: 8000 nM

Molecule: CN[C@@H]1C[C@H]2O[C@@](C)([C@@H]1OC)n1c3ccccc3c3c4c(c5c6ccccc6n2c5c31)C(=O)NC4 [Staurosporine]
- Ki ([2]; read-out: Potency Ki; Prolyl Oligopeptidase specific inhibitors, Table 5; cited from earlier work): 700 nM

Molecule: O=CC1CCCN1C(=O)C1Cc2ccccc2N1C(=O)OCc1ccccc1 (stereo not drawn) [Z-Indolinyl-Prolinal]
- Ki [2, 5]: 2.4 nM

Molecule: O=C(C1CCCN1C(=O)OCc1ccccc1)N1CCC(F)C1 (stereo not drawn) [Z-Pro-3-fluoropyrrolidine]
- Ki [2, 5]: 0.8 nM

Molecule: Postatin
- Potency IC50 [2, 4]: IC50 = 0.03 μg/mL

Molecule: Propeptin
- Ki [2, 5]: 700 nM

Reference: US20080213815A1, “DIAGNOSING BREAST CANCER BY SEPRASE LEVEL” (DUBLIN CITY UNIVERSITY, priority 2007, published 2008)
